Data on eight compounds can be found in patent US20120121591A1 (priority 2009, published 2012).

Holding throughout (format): cell-based
For assay [1], the system named is IFN-g secretion from T cells in human whole blood. As to conditions: read-out: WB (IFNg) IC50 (nM, Avg).
For assay [2], the system named is IL-2 secretion from T cells in human whole blood. As to conditions: read-out: WB (IL-2) IC50 (nM, Avg).
The target of a further assay is hKv1.3 (Homo sapiens, UniProt P22001). The assay can be described thus: cell-based. As to conditions: Kv1.3 (IWQ) IC50 (nM, Avg).
Chain of hKv1.3 (P22001 whole entry): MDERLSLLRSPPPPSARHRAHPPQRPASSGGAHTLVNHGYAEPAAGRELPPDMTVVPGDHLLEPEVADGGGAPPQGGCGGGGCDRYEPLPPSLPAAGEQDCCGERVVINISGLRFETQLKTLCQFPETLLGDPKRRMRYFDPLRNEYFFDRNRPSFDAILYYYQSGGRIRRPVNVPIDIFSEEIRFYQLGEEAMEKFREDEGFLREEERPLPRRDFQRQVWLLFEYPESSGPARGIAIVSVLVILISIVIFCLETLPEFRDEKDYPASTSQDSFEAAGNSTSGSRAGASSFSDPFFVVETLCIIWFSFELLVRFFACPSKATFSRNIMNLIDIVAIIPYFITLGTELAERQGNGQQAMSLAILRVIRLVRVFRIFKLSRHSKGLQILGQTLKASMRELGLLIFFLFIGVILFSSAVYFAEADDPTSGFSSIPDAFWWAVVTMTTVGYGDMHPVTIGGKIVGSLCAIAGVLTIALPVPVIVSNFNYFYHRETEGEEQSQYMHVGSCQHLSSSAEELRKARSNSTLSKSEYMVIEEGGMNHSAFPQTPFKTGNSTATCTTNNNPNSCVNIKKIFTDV

As for `CC[C@H](C)[C@@H]1NC(=O)[C@@H](NC(=O)[C@H](CO)NC(=O)[C@@H](N)CCCNC(=N)N)CSSC[C@@H](C(N)=O)NC(=O)[C@H]([C@@H](C)O)NC(=O)CNC(=O)[C@@H]2CSSC[C@@H]3NC(=O)[C@H](CCCCN)NC(=O)[C@H](Cc4ccccc4)NC(=O)[C@H](C)NC(=O)[C@H]([C@@H](C)O)NC(=O)[C@H](CSSC[C@H](NC(=O)[C@H](Cc4ccccc4)NC(=O)[C@H](CO)NC(=O)[C@H](CC(C)C)NC(=O)[C@H](CCCNC(=N)N)NC(=O)[C@H](Cc4ccc(O)cc4)NC(=O)[C@H](CCCCN)NC(=O)[C@H]([C@@H](C)O)NC(=O)[C@H](CO)NC(=O)[C@H](Cc4c[nH]cn4)NC(=O)[C@H](CCCCN)NC3=O)C(=O)N[C@@H](CCCNC(=N)N)C(=O)N[C@@H](CCCCN)C(=O)N[C@@H]([C@@H](C)O)C(=O)N2)NC(=O)[C@H](CCCNC(=N)N)NC(=O)[C@H](CO)NC(=O)[C@H](CCCCN)NC(=O)[C@@H]2CCCN2C(=O)[C@H]([C@@H](C)CC)NC(=O)[C@H]([C@@H](C)O)NC(=O)[C@H](CC(=O)O)NC1=O` [[Lys16, Thr21]ShK-amide], the IC50 in assay [1] is 2.98 nM; in assay [2], 1.55 nM; against hKv1.3 it was 0.058 nM.
Taken in the same sequence, the figures for `CC[C@H](C)[C@@H]1NC(=O)[C@@H](NC(=O)[C@H](CO)NC(=O)[C@@H](N)CCCNC(=N)N)CSSC[C@@H](C(N)=O)NC(=O)[C@H]([C@@H](C)O)NC(=O)CNC(=O)[C@@H]2CSSC[C@@H]3NC(=O)[C@H](CCCCN)NC(=O)[C@H](Cc4ccccc4)NC(=O)[C@H](C)NC(=O)[C@H]([C@@H](C)O)NC(=O)[C@H](CSSC[C@H](NC(=O)[C@H](Cc4ccccc4)NC(=O)[C@H](CO)NC(=O)[C@H](CC(C)C)NC(=O)[C@H](CCCNC(=N)N)NC(=O)[C@H](Cc4ccc(O)cc4)NC(=O)[C@H](CCCCN)NC(=O)[C@H](Cc4c[nH]c5ccccc45)NC(=O)[C@H](CO)NC(=O)[C@H](Cc4c[nH]cn4)NC(=O)[C@H](CCCCN)NC3=O)C(=O)N[C@@H](CCCNC(=N)N)C(=O)N[C@@H](CCCCN)C(=O)N[C@@H]([C@@H](C)O)C(=O)N2)NC(=O)[C@H](CCCNC(=N)N)NC(=O)[C@H](CO)NC(=O)[C@H](CCCCN)NC(=O)[C@@H]2CCCN2C(=O)[C@H]([C@@H](C)CC)NC(=O)[C@H]([C@@H](C)O)NC(=O)[C@H](CC(=O)O)NC1=O` [[Lys16, Trp21]ShK-amide] were 3.19 nM, 3.86 nM and 0.782 nM.
For `CC[C@H](C)[C@@H]1NC(=O)[C@@H](NC(=O)[C@H](CO)NC(=O)[C@@H](N)CCCNC(=N)N)CSSC[C@@H](C(N)=O)NC(=O)[C@H]([C@@H](C)O)NC(=O)CNC(=O)[C@@H]2CSSC[C@@H]3NC(=O)[C@H](CCCCN)NC(=O)[C@H](Cc4ccccc4)NC(=O)[C@H](C)NC(=O)[C@H]([C@@H](C)O)NC(=O)[C@H](CSSC[C@H](NC(=O)[C@H](Cc4ccccc4)NC(=O)[C@H](CO)NC(=O)[C@H](CC(C)C)NC(=O)[C@H](CCCNC(=N)N)NC(=O)[C@H](Cc4ccc(O)cc4)NC(=O)[C@H](CCCCN)NC(=O)[C@H](Cc4ccc(O)cc4)NC(=O)[C@H](CO)NC(=O)[C@H](Cc4c[nH]cn4)NC(=O)[C@H](CCCCN)NC3=O)C(=O)N[C@@H](CCCNC(=N)N)C(=O)N[C@@H](CCCCN)C(=O)N[C@@H]([C@@H](C)O)C(=O)N2)NC(=O)[C@H](CCCNC(=N)N)NC(=O)[C@H](CO)NC(=O)[C@H](CCCCN)NC(=O)[C@@H]2CCCN2C(=O)[C@H]([C@@H](C)CC)NC(=O)[C@H]([C@@H](C)O)NC(=O)[C@H](CC(=O)O)NC1=O` [[Lys16, Tyr21]ShK-amide], in that order: 3.19 nM, 2.83 nM and 0.246 nM.
Taken in the same sequence, the figures for `CC[C@H](C)[C@@H]1NC(=O)[C@@H](NC(=O)[C@H](CO)NC(=O)[C@@H](N)CCCNC(=N)N)CSSC[C@@H](C(N)=O)NC(=O)[C@H]([C@@H](C)O)NC(=O)CNC(=O)[C@@H]2CSSC[C@@H]3NC(=O)[C@H](CCCCN)NC(=O)[C@H](Cc4ccccc4)NC(=O)[C@H](C)NC(=O)[C@H]([C@@H](C)O)NC(=O)[C@H](CSSC[C@H](NC(=O)[C@H](Cc4ccccc4)NC(=O)[C@H](CO)NC(=O)[C@H](CC(C)C)NC(=O)[C@H](CCCNC(=N)N)NC(=O)[C@H](Cc4ccc(O)cc4)NC(=O)[C@H](CCCCN)NC(=O)[C@H](C(C)C)NC(=O)[C@H](CO)NC(=O)[C@H](Cc4c[nH]cn4)NC(=O)[C@H](CCCCN)NC3=O)C(=O)N[C@@H](CCCNC(=N)N)C(=O)N[C@@H](CCCCN)C(=O)N[C@@H]([C@@H](C)O)C(=O)N2)NC(=O)[C@H](CCCNC(=N)N)NC(=O)[C@H](CO)NC(=O)[C@H](CCCCN)NC(=O)[C@@H]2CCCN2C(=O)[C@H]([C@@H](C)CC)NC(=O)[C@H]([C@@H](C)O)NC(=O)[C@H](CC(=O)O)NC1=O` [[Lys16, VaI21]ShK-amide] were 6.65 nM, 4.8 nM and 0.344 nM.
Consider `CC[C@H](C)[C@@H]1NC(=O)[C@@H](NC(=O)[C@H](CO)NC(=O)[C@@H](N)CCCNC(=N)N)CSSC[C@@H](C(=O)O)NC(=O)[C@H]([C@@H](C)O)NC(=O)CNC(=O)[C@@H]2CSSC[C@@H]3NC(=O)[C@H](CCCCN)NC(=O)[C@H](Cc4ccccc4)NC(=O)[C@H](C)NC(=O)[C@H]([C@@H](C)O)NC(=O)[C@H](CSSC[C@H](NC(=O)[C@H](Cc4ccccc4)NC(=O)[C@H](CO)NC(=O)[C@H](CC(C)C)NC(=O)[C@H](CCCNC(=N)N)NC(=O)[C@H](Cc4ccc(O)cc4)NC(=O)[C@H](CCCCN)NC(=O)[C@H](C)NC(=O)[C@H](CO)NC(=O)[C@H](Cc4c[nH]cn4)NC(=O)[C@H](CCCCN)NC3=O)C(=O)N[C@@H](CCCNC(=N)N)C(=O)N[C@@H](CCCCN)C(=O)N[C@@H]([C@@H](C)O)C(=O)N2)NC(=O)[C@H](CCCNC(=N)N)NC(=O)[C@H](CO)NC(=O)[C@H](CCCCN)NC(=O)[C@@H]2CCCN2C(=O)[C@H]([C@@H](C)CC)NC(=O)[C@H]([C@@H](C)O)NC(=O)[C@H](CC(=O)O)NC1=O` [[Lys16,A1a21]ShK], for which the IC50 in assay [1] stood at 1.33 nM; in assay [2] it was 0.872 nM; on hKv1.3 it was 0.076 nM.
For `CC[C@H](C)[C@@H]1NC(=O)[C@@H](NC(=O)[C@H](CO)NC(=O)[C@@H](N)CCCNC(=N)N)CSSC[C@@H](C(=O)O)NC(=O)[C@H]([C@@H](C)O)NC(=O)CNC(=O)[C@@H]2CSSC[C@@H]3NC(=O)[C@H](CCCCN)NC(=O)[C@H](Cc4ccccc4)NC(=O)[C@H](C)NC(=O)[C@H]([C@@H](C)O)NC(=O)[C@H](CSSC[C@H](NC(=O)[C@H](Cc4ccccc4)NC(=O)[C@H](CO)NC(=O)[C@H](CC(C)C)NC(=O)[C@H](CCCNC(=N)N)NC(=O)[C@H](Cc4ccc(O)cc4)NC(=O)[C@H](CCCCN)NC(=O)[C@H](CCSC)NC(=O)[C@H](CO)NC(=O)[C@H](Cc4c[nH]cn4)NC(=O)[C@H](CCCNC(=N)N)NC3=O)C(=O)N[C@@H](CCCNC(=N)N)C(=O)N[C@@H](CCCCN)C(=O)N[C@@H]([C@@H](C)O)C(=O)N2)NC(=O)[C@H](CCCNC(=N)N)NC(=O)[C@H](CO)NC(=O)[C@H](CCCCN)NC(=O)[C@@H]2CCCN2C(=O)[C@H]([C@@H](C)CC)NC(=O)[C@H]([C@@H](C)O)NC(=O)[C@H](CC(=O)O)NC1=O` [[Lys16,Arg18]ShK], in that order: 0.097 nM, 0.077 nM and 0.425 nM.
Taken in the same sequence, the figures for `CC[C@H](C)[C@@H]1NC(=O)[C@@H](NC(=O)[C@H](CO)NC(=O)[C@@H](N)CCCNC(=N)N)CSSC[C@@H](C(N)=O)NC(=O)[C@H]([C@@H](C)O)NC(=O)CNC(=O)[C@@H]2CSSC[C@@H]3NC(=O)[C@H](CCCCN)NC(=O)[C@H](Cc4ccccc4)NC(=O)[C@H](C)NC(=O)[C@H]([C@@H](C)O)NC(=O)[C@H](CSSC[C@H](NC(=O)[C@H](Cc4ccccc4)NC(=O)[C@H](CO)NC(=O)[C@H](CC(C)C)NC(=O)[C@H](CCCNC(=N)N)NC(=O)[C@H](Cc4ccc(O)cc4)NC(=O)[C@H](CCCCN)NC(=O)[C@H](CCSC)NC(=O)[C@H](CO)NC(=O)[C@H](Cc4c[nH]cn4)NC(=O)[C@H](CCCCN)NC3=O)C(=O)N[C@@H](CCCNC(=N)N)C(=O)N[C@@H](CCCNC(=N)N)C(=O)N[C@@H]([C@@H](C)O)C(=O)N2)NC(=O)[C@H](CCCNC(=N)N)NC(=O)[C@H](CO)NC(=O)[C@H](CCCCN)NC(=O)[C@@H]2CCCN2C(=O)[C@H]([C@@H](C)CC)NC(=O)[C@H]([C@@H](C)O)NC(=O)[C@H](CC(=O)O)NC1=O` [[Lys16,Arg30]ShK-amide] were 0.236 nM, 0.151 nM and 0.129 nM.
Taken in the same sequence, the figures for `CC[C@H](C)[C@@H]1NC(=O)[C@@H](NC(=O)[C@H](CO)NC(=O)[C@@H](N)CCCNC(=N)N)CSSC[C@@H](C(=O)N[C@@H](C)C(=O)O)NC(=O)[C@H]([C@@H](C)O)NC(=O)CNC(=O)[C@@H]2CSSC[C@@H]3NC(=O)[C@H](CCCCN)NC(=O)[C@H](Cc4ccccc4)NC(=O)[C@H](C)NC(=O)[C@H]([C@@H](C)O)NC(=O)[C@H](CSSC[C@H](NC(=O)[C@H](Cc4ccccc4)NC(=O)[C@H](CO)NC(=O)[C@H](CC(C)C)NC(=O)[C@H](CCCNC(=N)N)NC(=O)[C@H](Cc4ccc(O)cc4)NC(=O)[C@H](CCCCN)NC(=O)[C@H](CC(N)=O)NC(=O)[C@H](CO)NC(=O)[C@H](Cc4c[nH]cn4)NC(=O)[C@H](CCCCN)NC3=O)C(=O)N[C@@H](CCCNC(=N)N)C(=O)N[C@@H](CCCCN)C(=O)N[C@@H]([C@@H](C)O)C(=O)N2)NC(=O)[C@H](CCCNC(=N)N)NC(=O)[C@H](CO)NC(=O)[C@H](CCCCN)NC(=O)[C@@H]2CCCN2C(=O)[C@H]([C@@H](C)CC)NC(=O)[C@H]([C@@H](C)O)NC(=O)[C@H](CC(=O)O)NC1=O` [[Lys16,Asn21]ShK-Ala] were 0.693 nM, 0.891 nM and 33 nM.

Broadly, the IC50 is the concentration at which inhibition is half-maximal.
